Data: US7833967B2, “Synthetic antimicrobial polypeptides” (priority 2003, dated 2010)

These substances were tested on E. coli TOP10 (assay: Suicide expression system (SES) growth inhibition). Settings: Table 3; variants of SEQ ID NO:5, re-tested in the Bioscreen C.
Type: cell-based

| Substance | Growth inhibition (%) |
| --- | --- |
| 49 (RRRPRPFPRPLPRPVPRPFPRPVPRPL; Synthetic antimicrobial peptide) [compound 49] | 51 |
| 50 (RRRPRPFPRPLPRPVPRPFPRPVPRPV; Synthetic antimicrobial peptide) [compound 50] | 69 |
| 51 (RRRPRPFPRPVPRPFPRPFPRPFPRPF; Synthetic antimicrobial peptide) [compound 51] | 77 |
| 52 (RRRPRPFPRPVPRPIPRPFPRPVPRPF; Synthetic antimicrobial peptide) [compound 52] | 53 |
| 53 (RRRPRPFPRPVPRPIPRPFPRPVPRPV; Synthetic antimicrobial peptide) [compound 53] | 62 |
| 54 (RRRPRPFPRPVPRPVPRPFPRPIPRPL; Synthetic antimicrobial peptide) [compound 54] | 65 |
| 55 (RRRPRPFPRPVPRPVPRPFPRPLPRPI; Synthetic antimicrobial peptide) [compound 55] | 63 |
| 56 (RRRPRPIPRPFPRPFPRPFPRPFPRPI; Synthetic antimicrobial peptide) [compound 56] | 51 |
| 57 (RRRPRPIPRPFPRPIPRPIPRPFPRPF; Synthetic antimicrobial peptide) [compound 57] | 73 |
| 58 (RRRPRPIPRPFPRPIPRPVPRPFPRPF; Synthetic antimicrobial peptide) [compound 58] | 77 |
| 59 (RRRPRPIPRPFPRPIPRPVPRPFPRPF; Synthetic antimicrobial peptide) [compound 59] | 75 |
| 60 (RRRPRPIPRPFPRPVPRPVPRPFPRPF; Synthetic antimicrobial peptide) [compound 60] | 70 |
| 61 (RRRPRPVPRPFPRPVPRPLPRPFPRPF; Synthetic antimicrobial peptide) [compound 61] | 97 |
| 62 (RRRPRPIPRPIPRPFPRPFPRPFHAQSNCSRTKTHLRRGSE; Synthetic antimicrobial peptide) [compound 62] | 77 |
| 63 (RRRPRPFPRPFPRPVPRPFPRPFPRQSNCSRTKTHLRRGSE; Synthetic antimicrobial peptide) [compound 63] | 80 |

Same assay, conditions: Table 4; variants of SEQ ID NO:10, re-tested in the Bioscreen C

| Substance | Growth inhibition (%) |
| --- | --- |
| 64 (RRRPFRPPFRPPFRPPFRPPFRPPFRP; Synthetic antimicrobial peptide) [compound 64] | 82 |
| 65 (RRRPLRPPLRPPVRPPVRPPFRPPFRP; Synthetic antimicrobial peptide) [compound 65] | 89 |
| 66 (RRRPFRPPFRPPFRPPIRPPLRPPIRP; Synthetic antimicrobial peptide) [compound 66] | 76 |
| 67 (RRRPLRPPLRPPIRPPFRPPVRPPFRP; Synthetic antimicrobial peptide) [compound 67] | 80 |
| 68 (RRRPIRPPFRPPFRPPLRPPVRPPFRP; Synthetic antimicrobial peptide) [compound 68] | 78 |
| 69 (RRRPIRPPFRPPFRPPLRPPFRPPIRP; Synthetic antimicrobial peptide) [compound 69] | 75 |
| 70 (RRRPLRPPLRPPFRPPIRPPLRPPFRP; Synthetic antimicrobial peptide) [compound 70] | 76 |
| 71 (RRRPLRPPIRPPFRPPIRPPFRPPFRP; Synthetic antimicrobial peptide) [compound 71] | 82 |
| 72 (RRRPIRPPFRPPFRPPFRPPFRPPFRP; Synthetic antimicrobial peptide) [compound 72] | 49 |
| 73 (RRRPFRPPVRPPFRPPVRPPIRPPVRP; Synthetic antimicrobial peptide) [compound 73] | 65 |
| 74 (RRRPFRPPVRPPFRPPFRPPIRPPIRP; Synthetic antimicrobial peptide) [compound 74] | 76 |
| 75 (RRRPFRPPIRPPVRPPFRPPFRPPFRP; Synthetic antimicrobial peptide) [compound 75] | 79 |
| 76 (RRRPIRPPFRPPIRPPVRPPFRPPIRP; Synthetic antimicrobial peptide) [compound 76] | 86 |
| 77 (RRRPFRPPFRPPIRPPVRPPFRPPFRP; Synthetic antimicrobial peptide) [compound 77] | 72 |
| 78 (RRRPLRPPFRPPFRPPFRPPIRPPVRP; Synthetic antimicrobial peptide) [compound 78] | 83 |
| 79 (RRRPFRPPFRPPFRPPVRPPVRPPFRP; Synthetic antimicrobial peptide) [compound 79] | 82 |
| 80 (RRRPFRPPFRPPIRPPVRPPVRPPFRP; Synthetic antimicrobial peptide) [compound 80] | 81 |
| 81 (RRRPFRPPIRPPFRPPFRPPVRPPIRP; Synthetic antimicrobial peptide) [compound 81] | 80 |
| 82 (RRRPIRPPFRPPVRPPFRPPFRPPFRP; Synthetic antimicrobial peptide) [compound 82] | 71 |
| 83 (RRRPLRPPFRPPIRPPVRPPFRPPVRP; Synthetic antimicrobial peptide) [compound 83] | 72 |
| 84 (RRRPIRPPLRPPIRPPFRPPFRPPLRP; Synthetic antimicrobial peptide) [compound 84] | 80 |
| 85 (RRRPFRPPIRPPIRPPFRPPFRPPIRP; Synthetic antimicrobial peptide) [compound 85] | 67 |
| 86 (RRRPIRPPFRPPLRPPLRPPVRPPFRP; Synthetic antimicrobial peptide) [compound 86] | 74 |
| 87 (RRRPFRPPFRPPIRPPFRPPVRPPVRP; Synthetic antimicrobial peptide) [compound 87] | 80 |
| 88 (RRRPFRPPLRPPLRPPVRPPVRPPFRP; Synthetic antimicrobial peptide) [compound 88] | 82 |
| 89 (RRRPFRPPFRPPFRPPVRPPVRPPLRP; Synthetic antimicrobial peptide) [compound 89] | 70 |

| Substance | Growth inhibition (%) |
| --- | --- |
| 90 (RRRPFRPPIRPPFRPPFRPPVRPPFRP; Synthetic antimicrobial peptide) [compound 90] | 74 |
| 91 (RRRPFRPPVRPPIRPPVRPPFRPPVRP; Synthetic antimicrobial peptide) [compound 91] | 52 |
| 92 (RRRPVRPPIRPPFRPPFRPPFRPPFRP; Synthetic antimicrobial peptide) [compound 92] | 85 |
| 93 (RRRPFRPPFRPPFRPPVRPPLRPPIRP; Synthetic antimicrobial peptide) [compound 93] | 61 |
| 94 (RRRPFRPPVRPPIRPPVRPPFRPPFRP; Synthetic antimicrobial peptide) [compound 94] | 77 |
| 95 (RRRPFRPPLRPPLRPPIRPPVRPPFRP; Synthetic antimicrobial peptide) [compound 95] | 80 |
| 96 (RRRPFRPPIRPPFRPPIRPPLRPPIRP; Synthetic antimicrobial peptide) [compound 96] | 71 |
| 97 (RRRPLRPPFRPPFRPPLRPPFRPPIRP; Synthetic antimicrobial peptide) [compound 97] | 69 |
| 98 (RRRPFRPPFRPPVRPPIRPPLRPPFRP; Synthetic antimicrobial peptide) [compound 98] | 63 |
| 99 (RRRPFRPPIRPPIRPPFRPPIRPPFRP; Synthetic antimicrobial peptide) [compound 99] | 79 |
| 100 (RRRPIRPPFRPPFRPPFRPPFRPPFRP; Synthetic antimicrobial peptide) [compound 100] | 84 |
| 101 (RRRPIRPPFRPPLRPPFRPPIRPPIRP; Synthetic antimicrobial peptide) [compound 101] | 81 |
| 102 (RRRPIRPPFRPPIRPPFRPPLRPPFRP; Synthetic antimicrobial peptide) [compound 102] | 77 |
| 103 (RRRPLRPPIRPPIRPPVRPPFRPPIRP; Synthetic antimicrobial peptide) [compound 103] | 73 |
| 104 (RRRPFRPPFRPPIRPPFRPPFRPPLRP; Synthetic antimicrobial peptide) [compound 104] | 76 |
| 105 (RRRPIRPPLRPPLRPPFRPPFRPPFRP; Synthetic antimicrobial peptide) [compound 105] | 73 |
| 106 (RRRPFRPPFRPPFRPPIRPPIRPPLRP; Synthetic antimicrobial peptide) [compound 106] | 75 |
| 107 (RRRPFRPPFRPPVRPPFRPPIRPPFRP; Synthetic antimicrobial peptide) [compound 107] | 69 |
| 108 (RRRPLRPPFRPPIRPPVRPPVRPPFRP; Synthetic antimicrobial peptide) [compound 108] | 76 |
| 109 (RRRPFRPPIRPPVRPPLRPPVRPPFRP; Synthetic antimicrobial peptide) [compound 109] | 71 |
| 110 (RRRPFRPPLRPPFRPPIRPPIRPPVRP; Synthetic antimicrobial peptide) [compound 110] | 73 |
| 111 (RRRPLRPPVRPPFRPPVRPPLRPPFRP; Synthetic antimicrobial peptide) [compound 111] | 59 |
| 112 (RRRPFRPPIRPPFRPPVRPPVRPPVRP; Synthetic antimicrobial peptide) [compound 112] | 69 |
| 113 (RRRPLRPPVRPPFRPPVRPPFRPPFRP; Synthetic antimicrobial peptide) [compound 113] | 75 |
| 114 (RRRPLRPPLRPPFRPPLRPPFRPPFRP; Synthetic antimicrobial peptide) [compound 114] | 74 |
